Data: patent US20020051978A1, “Methods and compositions for the identification, assessment, prevention and therapy of human cancers” (priority 2000, published 2002)

Tested on: 60 cancer cell lines (NCI 60 cancer cell line series)
Assay: NCI-DTP in vitro cancer screen, sulforhodamine B (SRB) growth inhibition, 48 hour exposure
Type: cell-based, human
Method: Cancer Cell Line Preparation. Sixty cancer cell lines were obtained from the National Cancer Institute Developmental Therapeutics Program (NCI-DTP). Procedures for growing cells and testing compounds have been described previously (Scudiero et al., Cancer Res. 1988, 48:4827-4833; Stinson et al., Anticancer Res.; Myers et al., Electrophoresis 1997, 18:647-653). Cells are plated on day 0 at a density individualized for each cell line so that they will generally be sub-confluent at the end of the assay period. On day 1, a compound is added in the format for a duplicate-well, 5-dose, ten-fold interval dose response study.
No-drug, no-cell and no-growth controls are included. On day 3 the cells are processed for staining with sulforhodamine B (SRB), which reflects the amount of cell mass present at the end of a 48 hour exposure to the test agent. From dose response curves based on the SRB data, various parameters can be determined. The one used in the present study is the G15o, defined as the concentration of compound required to inhibit growth of the cell line by 50%. More precisely, the quantity used in the calculation to be described is the potency measure -log{GI50}.
Activity database (A). Table IA, consisting of the growth inhibition (GI5o) values for the 60 cell lines and 24 compounds, was created from the NCI-DTP in vitro cancer screen database. This subset of compounds was selected from the larger 23,000 compound database available from the DTP. The compounds were selected on the basis of their known mechanism of action and chemical structure. The average potency—log{GI50} was extracted from the comma-delimited text files available through the Web at http://www.nci.nih.gov/intra/lmp/jnwbio.htmrl. Subsequently, these log{GI5o} values were inspected manually and classified as indicating either Low, Medium or High sensitivity to each compound.

For `CC[C@]1(O)C[C@@H]2CN(CCc3c([nH]c4ccccc34)[C@@](C(=O)OC)(c3cc4c(cc3OC)N(C)[C@H]3[C@@](O)(C(=O)OC)[C@H](OC(C)=O)[C@]5(CC)C=CCN6CC[C@]43[C@@H]65)C2)C1` [Vinblastinesulfate], the “classification of cell line as Low(1), Medium(2) or High(3) sensitivity to compound” value (“classification of cell line” below) (Breast BT-549 (CL5013)) was 3, the “classification of cell line” value (Breast HS-578T CL5006) was 3 and the “classification of cell line” value (Breast MCF7(I) (CL5001)) was 3. For the same molecule, the “classification of cell line” value (Breast MCF7/ADRr (CL5002)) was 1, the “classification of cell line” value (Breast MDA-MB-231 CL5005) was 2 and the “classification of cell line” value (Breast MDA-MB-435 (CL5011)) was 3. For the same molecule, the “classification of cell line” value (Breast MDA-N CL5012) was 3, the “classification of cell line” value (Breast T-47D (CL5014)) was 3 and the “classification of cell line” value (CNS SF-268 CL12014) was 2. The “classification of cell line” value (CNS SF-295 CL12015) was 2.
With Carboplatin the “classification of cell line” value (Breast BT-549 (CL5013)) was 2, the “classification of cell line” value (Breast HS-578T CL5006) was 2 and the “classification of cell line” value (Breast MCF7(I) (CL5001)) was 2. For the same molecule, the “classification of cell line” value (Breast MCF7/ADRr (CL5002)) was 2, the “classification of cell line” value (Breast MDA-MB-231 CL5005) was 1 and the “classification of cell line” value (Breast MDA-MB-435 (CL5011)) was 1. For the same molecule, the “classification of cell line” value (Breast MDA-N CL5012) was 2, the “classification of cell line” value (Breast T-47D (CL5014)) was 1 and the “classification of cell line” value (CNS SF-268 CL12014) was 3. For the same molecule, the “classification of cell line” value (CNS SF-295 CL12015) was 3, the “classification of cell line” value (CNS SF-539 CL12016) was 2 and the “classification of cell line” value (CNS SNB-19 (CL12002)) was 2. For the same molecule, the “classification of cell line” value (CNS SNB-75(I) CL12005) was 2, the “classification of cell line” value (CNS U251(I) CL12009) was 2 and the “classification of cell line” value (Colon COLO-250 CL4010) was 1. The “classification of cell line” value (Colon HCC-2998 (CL4002)) was 1, the “classification of cell line” value (Colon HCT-15 CL4015) was 1 and the “classification of cell line” value (Colon HCT-116 (CL4003)) was 2. For the same molecule, the “classification of cell line” value (Colon HT29(I) CL4001) was 1, the “classification of cell line” value (Colon KM12 (CL4017)) was 1 and the “classification of cell line” value (Colon SW-620 (CL4009)) was 2. For the same molecule, the “classification of cell line” value (Leukemia CCRF-CEM(I) (CL7003)) was 2, the “classification of cell line” value (Leukemia HL-60(I) (CL7008)) was 3 and the “classification of cell line” value (Leukemia K562(I) CL7005) was 2. The “classification of cell line” value (Leukemia MOLT-4 (CL7006)) was 2, the “classification of cell line” value (Leukemia RPMI-8226(I) (CL7010)) was 2 and the “classification of cell line” value (Leukemia SR CL7019) was 2. For the same molecule, the “classification of cell line” value (Melanoma LOX IMVI CL10001) was 2, the “classification of cell line” value (Melanoma M14 (CL10014)) was 2 and the “classification of cell line” value (Melanoma MALME-3M CL10002) was 2. For the same molecule, the “sensitivity class NSCLC NCI-H23(I) CL1001” value (cell line NSCLC NCI-H23(I), CL1001) was 3, the “sensitivity class NSCLC NCI-H332M CL1017” value (cell line NSCLC NCI-H332M, CL1017) was 1 and the “sensitivity class NSCLC NCI-H460 CL1021” value (cell line NSCLC NCI-H460, CL1021) was 3. The “sensitivity class NSCLC NCI-H522 CL1003” value (cell line NSCLC NCI-H522, CL1003) was 3, the “sensitivity class Ovarian IGROV1 CL6010” value (cell line Ovarian IGROV1, CL6010) was 3 and the “sensitivity class Ovarian OVCAR-3 CL6001” value (cell line Ovarian OVCAR-3, CL6001) was 2. For the same molecule, the “sensitivity class Ovarian OVCAR-4 CL6002” value (cell line Ovarian OVCAR-4, CL6002) was 2, the “sensitivity class Ovarian OVCAR-5 CL6003” value (cell line Ovarian OVCAR-5, CL6003) was 1 and the “sensitivity class Ovarian OVCAR-8 CL6005” value (cell line Ovarian OVCAR-8, CL6005) was 2. The “sensitivity class Ovarian SK-OV-3 CL6011” value (cell line Ovarian SK-OV-3, CL6011) was 2, the “sensitivity class Prostate DU-145 CL11003” value (cell line Prostate DU-145, CL11003) was 2 and the “sensitivity class Prostate PC-3(I) CL11001” value (cell line Prostate PC-3(I), CL11001) was 1. For the same molecule, the “sensitivity class Renal 786-O CL9018” value (cell line Renal 786-O, CL9018) was 2, the “sensitivity class Renal A498 CL9013” value (cell line Renal A498, CL9013) was 1 and the “sensitivity class Renal ACHN CL9023” value (cell line Renal ACHN, CL9023) was 2. For the same molecule, the “sensitivity class Renal CAKI-1 CL9015” value (cell line Renal CAKI-1, CL9015) was 2, the “sensitivity class Renal RXF-393 CL9016” value (cell line Renal RXF-393, CL9016) was 2 and the “sensitivity class Renal SN12C CL9008” value (cell line Renal SN12C, CL9008) was 2. For the same molecule, the “sensitivity class Renal TK10 CL9024” value (cell line Renal TK10, CL9024) was 1, the “sensitivity class Renal UO-31 CL9004” value (cell line Renal UO-31, CL9004) was 2 and the “3 # of High” value (number of the 60 cell lines classified High (3) sensitivity) was 8. The “1 # of Low” value (number of the 60 cell lines classified Low (1) sensitivity) was 14 and the “2 # of Medium” value (number of the 60 cell lines classified Medium (2) sensitivity) was 38.
